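GI50 is the concentration that inhibits growth by half. TGI marks complete inhibition of growth.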
Assays:
Test in all cases: NCI tumour cell line growth inhibition, 384-well format; in the data active = GI50 below about 0.43 µM; inactive = the rest
[1] = test system: 786-0 renal
[2] = test system: U251 glioblastoma
[3] = test system: OVCAR-3 ovarian
[4] = test system: RXF 393 renal
[5] = test system: SK-MEL-5 melanoma
[6] = test system: HOP-92 NSCLC
[7] = test system: UACC-257 melanoma
[8] = test system: ACHN renal
[9] = test system: SK-OV-3 ovarian
[10] = test system: BT-549 breast
[11] = test system: UACC-62 melanoma
[12] = test system: UO-31 renal
[13] = test system: DU-145 prostate
[14] = test system: A549 NSCLC
[15] = test system: PC-3 prostate
[16] = test system: IGROV1 ovarian
[17] = test system: OVCAR-5 ovarian
[18] = test system: SN12C renal
[19] = test system: NCI-H522 lung
[20] = test system: NCI-H460 NSCLC
[21] = test system: MDA-MB-231 breast
[22] = test system: HOP-62 NSCLC
[23] = test system: HCT-15 colon
[24] = test system: COLO 205 colon
[25] = test system: SF-539 CNS
[26] = test system: EKVX NSCLC
[27] = test system: T-47D breast
[28] = test system: NCI-H322M lung
[29] = test system: TK-10 renal
[30] = test system: NCI-H226 lung
[31] = test system: SNB-75 CNS
[32] = test system: LOX IMVI melanoma
[33] = test system: NCI-H23 lung
[34] = test system: SK-MEL-28 melanoma
[35] = test system: MALME-3M melanoma
[36] = test system: SW-620 colon
[37] = test system: MCF7 breast
[38] = test system: HCC-2998 colon
[39] = test system: HL-60(TB) leukemia
[40] = test system: MDA-MB-435 melanoma
[41] = test system: SNB-19 CNS
[42] = test system: NCI/ADR-RES ovarian
[43] = test system: M14 melanoma
[44] = test system: HCT-116 colon
[45] = test system: OVCAR-8 ovarian
[46] = test system: RPMI-8226 leukemia
[47] = test system: CAKI-1 renal
[48] = test system: MOLT-4 leukemia
[49] = test system: KM12 colon
[50] = test system: HT29 colon
[51] = test system: HS 578T breast
[52] = test system: SF-268 CNS
[53] = test system: MDA-MB-468 breast
[54] = test system: A498 renal
[55] = test system: SR leukemia
[56] = test system: OVCAR-4 ovarian
[57] = test system: SF-295 CNS

C[C@]12CC[C@H](O)CC1=CC[C@@H]1[C@@H]2CC[C@]2(C)C(c3cccnc3)=CC[C@@H]12
61.5 µM: TGI [35]
3.88 µM: TGI [1]
45.1 µM: TGI [54]
96.1 µM: TGI [50]
inactive: GI50 [1] 1.93 µM | GI50 [2] > 100 µM | GI50 [3] > 100 µM | GI50 [4] 1.83 µM | GI50 [5] > 100 µM | GI50 [6] 25.2 µM | GI50 [7] > 100 µM | GI50 [8] 22.9 µM | GI50 [9] > 100 µM | GI50 [10] 9.12 µM | GI50 [11] > 100 µM | GI50 [12] > 100 µM | GI50 [13] > 100 µM | GI50 [14] 63.9 µM | GI50 [15] > 100 µM | GI50 [16] 60.4 µM | GI50 [17] > 100 µM | GI50 [18] > 100 µM | GI50 [19] > 100 µM | GI50 [20] > 100 µM | GI50 [21] > 100 µM | GI50 [22] 20 µM | GI50 [23] 9.74 µM | GI50 [24] 42.1 µM | GI50 [25] > 100 µM | GI50 [26] 25.9 µM | GI50 [27] > 100 µM | GI50 [28] > 100 µM | GI50 [29] > 100 µM | GI50 [30] 4.86 µM | GI50 [31] > 100 µM | GI50 [32] 4.93 µM | GI50 [33] > 100 µM | GI50 [34] > 100 µM | GI50 [35] 3.99 µM | GI50 [36] > 100 µM | GI50 [37] > 100 µM | GI50 [38] > 100 µM | GI50 [39] 4.06 µM | GI50 [40] > 100 µM | GI50 [41] > 100 µM | GI50 [42] > 100 µM | GI50 [43] > 100 µM | GI50 [44] 57 µM | GI50 [45] > 100 µM | GI50 [46] 2.36 µM | GI50 [47] 52.8 µM | GI50 [48] 2.99 µM | GI50 [49] 38.3 µM | GI50 [50] 15.2 µM | GI50 [51] 9.52 µM | GI50 [52] > 100 µM | GI50 [53] 5.46 µM | GI50 [54] 15.8 µM
> 100 µM: TGI [2] | TGI [3] | TGI [5] | TGI [6] | TGI [7] | TGI [8] | TGI [9] | TGI [11] | TGI [12] | TGI [13] | TGI [14] | TGI [15] | TGI [16] | TGI [17] | TGI [18] | TGI [19] | TGI [20] | TGI [21] | TGI [22] | TGI [23] | TGI [24] | TGI [25] | TGI [26] | TGI [27] | TGI [28] | TGI [29] | TGI [30] | TGI [31] | TGI [32] | TGI [33] | TGI [34] | TGI [36] | TGI [37] | TGI [38] | TGI [40] | TGI [41] | TGI [42] | TGI [43] | TGI [44] | TGI [45] | TGI [47] | TGI [49] | TGI [52] | TGI [53]
49 µM: TGI [51]
69.7 µM: TGI [10]
4.72 µM: TGI [4]
25 µM: TGI [48]
10.1 µM: TGI [39]
4.65 µM: TGI [46]

O=C(O)CCCCC(CCSCc1ccccc1)SCc1ccccc1 (stereo unspecified)
84.4 µM: TGI [46]
73.3 µM: TGI [19]
> 100 µM: TGI [2] | TGI [3] | TGI [4] | TGI [5] | TGI [6] | TGI [7] | TGI [8] | TGI [9] | TGI [10] | TGI [11] | TGI [13] | TGI [14] | TGI [15] | TGI [16] | TGI [17] | TGI [18] | TGI [20] | TGI [21] | TGI [22] | TGI [56] | TGI [23] | TGI [24] | TGI [25] | TGI [26] | TGI [27] | TGI [28] | TGI [29] | TGI [30] | TGI [31] | TGI [32] | TGI [33] | TGI [34] | TGI [35] | TGI [37] | TGI [57] | TGI [38] | TGI [39] | TGI [40] | TGI [41] | TGI [42] | TGI [43] | TGI [44] | TGI [45] | TGI [47] | TGI [48] | TGI [49] | TGI [50] | TGI [51] | TGI [52] | TGI [53] | TGI [54]
67.1 µM: TGI [55]
inactive: GI50 [55] 22.6 µM | GI50 [2] 45.3 µM | GI50 [3] 45.2 µM | GI50 [4] > 100 µM | GI50 [5] 33.4 µM | GI50 [6] > 100 µM | GI50 [7] 62.2 µM | GI50 [8] > 100 µM | GI50 [9] > 100 µM | GI50 [10] > 100 µM | GI50 [11] 75.7 µM | GI50 [13] 64 µM | GI50 [14] 44 µM | GI50 [15] 59.6 µM | GI50 [16] 68.3 µM | GI50 [17] > 100 µM | GI50 [18] > 100 µM | GI50 [19] 27.6 µM | GI50 [20] 34.2 µM | GI50 [21] > 100 µM | GI50 [22] 50.4 µM | GI50 [56] 59 µM | GI50 [23] 45.1 µM | GI50 [24] > 100 µM | GI50 [25] > 100 µM | GI50 [26] 37.3 µM | GI50 [27] 68.7 µM | GI50 [28] 90.6 µM | GI50 [29] 50.2 µM | GI50 [30] 97.6 µM | GI50 [31] > 100 µM | GI50 [32] > 100 µM | GI50 [33] 50.5 µM | GI50 [34] > 100 µM | GI50 [35] > 100 µM | GI50 [37] 66.9 µM | GI50 [57] 39.3 µM | GI50 [38] 47.5 µM | GI50 [39] 58.8 µM | GI50 [40] > 100 µM | GI50 [41] 94 µM | GI50 [42] > 100 µM | GI50 [43] > 100 µM | GI50 [44] 47.5 µM | GI50 [45] > 100 µM | GI50 [46] 33.7 µM | GI50 [47] > 100 µM | GI50 [48] > 100 µM | GI50 [49] 45.4 µM | GI50 [50] 53.7 µM | GI50 [51] > 100 µM | GI50 [52] > 100 µM | GI50 [53] 39.7 µM | GI50 [54] 42.3 µM

Source: PubChem BioAssay (NCI)
